Test [1] deals with eIF4E phosphorylation in breast cancer cells (MDA-MB-468). As to the kind of experiment: titration of eIF4E phosphorylation in MDA-MB-468 cells. It counts as cell-based. How it is done:
(§1) Commercially available MDA-MB-231, MDA-MB-468, MCF7 and A375M, IMR90 (IMR-90 (ATCC® CCL-186TH) cells were grown at 37° C. and 5% CO2 in DMEM medium (Dulbecco's Modified Eagle Medium, 4.5 g/I glucose; 30 mg/I L-Glutamine (Gibco)) supplemented with 10% foetal bovine serum, 100 U/ml penicillin and 100 μg/ml streptomycin.
(§2) Inhibition of eIF4E phosphorylation was quantified by Western Blot. Cells were seeded in 60 mm plates (700,000 cells for 24 h, 500,000 cells for 48 h and 300,000 cells for 72 h).
(§3) After 24 h, the treatments were added. The stocks of compounds were prepared in […] at a concentration 200 times more concentrated than the treatment concentration. Thus, in all cases, the final concentration of DMSO in the medium was 0.5%.
(§4) After incubation, proteins were removed and Western Blot was performed. On ice, the plates were washed with PBS and the cells were lysed with 60 μl lysis buffer (50 mM Tris, 200 mM NaCl, 5 mM EDTA, 0.1% Triton 100×, pH 7.5 supplemented with protease inhibitors (EDTA-free Protease Inhibitor Cocktail Set III, Calbiochem) and phosphatase inhibitors (Phosphatase Inhibitor Cocktail Set II, Calbiochem)). The samples were centrifuged at 15,000 g and the supernatant was quantified by the Bradford method. […] Selectivity against MNK was analysed with ERK, p-ERK, MNK1, p-MNK1, 4EBP1 and p-4EBP1 antibodies. […]

In test [2] the test system is PD-L1 in MDA-MB-231 cells. As to the kind of experiment: PD-L1 levels by western blot in MDA-MB-231 cells. The format is cell-based, human. On the procedure:
MDA-MB-231 cells were treated for 48 h with the indicated concentrations of the inhibitors. DMSO was used as vehicle control. Protein extracts were prepared and western blot analysis were carried out. Data are depicted in FIG. 10.
A general note: In western blotting, separated proteins are transferred to a membrane and probed.

A further test concerns 22Rv1 cells. As to the kind of experiment: apoptosis assay of 22Rv1 cells (Propidium Iodide staining). The format is cell-based. As to conditions: 22Rv1, 72 h, dual treatment EB1 and Enzalutamide. On the procedure: Dual inhibition of AR and eIF4E phosphorylation induces cell death via apoptosis. […] With this aim, 22Rv1 (A) cells were treated either with vehicle (DMSO), enzalutamide, EB1 or a combination of both with the indicated concentrations for 72 h. Whole cell lysates were then prepared and subjected to western blot analysis with the indicated antibodies. […] Increase in CI-PARP levels indicated apoptotic induction under the combinatory treatment. (B) Apoptosis assays of 22Rv1 cell line after treatment with the indicated concentrations of Enzalutamide, EB1 and the combination of both for 72 h, quantified by analysis of fragmented/condensed chromatin after Propidium Iodide staining. […] Representative Propidium Iodide and Hoechst staining images of 22Rv1 cell line were obtained, although data are not shown. Data are mean of two technical replicates from one experiment ±SEM ***p<0.001 two-tailed Student's test

The subject of a further test is MDA-MB-231 cells. As to the kind of experiment: FACS analysis of cell cycle and subG1, MDA-MB-231. The format is cell-based. As to conditions: MDA-MB-231, higher concentrations. How it is done:
To determine how cell growth is affected at higher concentrations of EB1, a FACS analysis was performed to monitor the state of the cell cycle and the percentage of cells in subG1 as an indicator of cell death. […] Equivalent results have been described for the MNK1/2 inhibitor BAY 11433296 (FIG. 4).

For test [3], the system named is eIF4E phosphorylation in leukaemia cells (MV4-11). As to the kind of experiment: titration of eIF4E phosphorylation in MV4-11 cells. The format is cell-based. How it is done: MV4-11 cells were grown in IMDM medium (Iscove's Modified Dulbecco's Medium, Gibco) supplemented with 10% FBS, 1% L-glutamine, 100 U/ml penicillin and 100 μg/ml streptomycin.
as §2, §3
as §4, with “method. The samples were all diluted to the same concentration with a lysis buffer and loading buffer (Laemmli buffer) and denatured for 5 minutes at 95° C.” for “method.”

The subject of test [4] is MNK1/2. As to the kind of experiment: radiometric kinase assay (33PanQinase Activity Assay), IC50. It counts as biochemical. On the procedure:
(§5) The kinase activity of the compound was measured by a radiometric kinase assay (^33PanQinase® Activity Assay) carried out by Proqinase (www.proqinase.com).
(§6) The assays were carried out in 96-well FlashPlates™ by PerkinElmer (Boston, Mass., USA) with a reaction volume of 50 μl. The reaction cocktail was pipetted in 4 steps: (1) 20 μl buffer, (2) 5 μl ATP solution (in H2O), (3) 5 μl compound (in 10% DMSO) and (4) 20 μl enzyme/substrate mixture. Lastly, the cocktail contained 70 mM HEPES-NaOH pH 7.5, 3 mM MgCl2, 3 mM MnCl2, 3 μM sodium orthovanadate, 1.2 mM DTT, 50 μg/ml PEG20000, ATP (1 μM for MNK1 and 0.3 μM for MNK2), [γ-^33P]-ATP (approx. […] per well), protein kinase (variable amounts depending on the batch) and substrate (2 μg/50 μl).
(§7) Reaction cocktails were incubated at 30° C. for 60 minutes. The reaction was stopped with 50 μl of 2% H3PO4 (v/v), the plates were sucked, they were washed twice with 200 μl of 0.9% NaCl (w/v) and the incorporation of ^33Pi (MicroBeta microplate scintillation counter, Wallac) was determined. All assays were performed with a Beckman Coulter/SAGIAN™ system.
(§8) The residual activity (in %) for each well of a particular plate was calculated using the following formula (wherein high control is the kinase activity in absence of an inhibitor and low control is the radioactivity value of the substrate in absence of a kinase).

The target in test [5] is T1, MNK1/2.
T1 construct: rows headed: enzymatic IC50
Described as above. Particulars: MNK1/2, isoform not stated; read-out: enzymatic IC50. The format is biochemical. How it is done: as §5, §6, §7, §8

For test [6], the system named is eIF4E phosphorylation in MDA-MB-231 cells. As to the kind of experiment: inhibition of eIF4E phosphorylation by Western Blot in MDA-MB-231 cells. It counts as cell-based, human. On the procedure: as §1, §2, §3
After incubation, proteins were removed and Western Blot was performed. On ice, the plates were washed with PBS and the cells were lysed with 60 μl lysis buffer (50 mM Tris, 200 mM NaCl, 5 mM EDTA, 0.1% Triton 100×, pH 7.5 supplemented with protease inhibitors (EDTA-free Protease Inhibitor Cocktail Set III, Calbiochem) and phosphatase inhibitors (Phosphatase Inhibitor Cocktail Set II, Calbiochem)). The samples were centrifuged at 15,000 g and the supernatant was quantified by the Bradford method. The samples were all diluted to the same concentration with a lysis buffer and loading buffer (Laemmli buffer) and denatured for 5 minutes at 95° C. The proteins were separated on a 12% […] gel (20 μg were loaded per well) and transferred to a PDVF (Polyvinylidene fluoride) membrane. β-Actin antibodies, abbreviated as “actin” in the figures (Calbiochem), eIF4E (anti-rabbit, Cell signalling), and phosphorylated-eIF4E (S209) (anti-rabbit, Cell signalling) in 5% BSA in TBST were used to study the activity of the compounds. Selectivity against MNK was analysed with ERK, p-ERK, MNK1, p-MNK1, 4EBP1 and p-4EBP1 antibodies.

These results are taken from US20220257571A1, “INHIBITOR OF MAP KINASE INTERACTING SERINE/THREONINE KINASE 1 (MNK1) AND MAP KINASE INTERACTING SERINE/THREONINE KINASE 2 (MNK2), CANCER THERAPY AND THERAPEUTIC COMBINATIONS” (FUNPACIÓ HOSPITAL UNIVERSITARI VALL D'HEBRON - INSTITUT DE …, priority 2019, published 2022).

The IC50 is the point on the concentration scale where inhibition reaches its midpoint. One may read the EC50 as the concentration giving half of the maximal effect.

A value given as a limit tells only on which side of the number the result lay.

Regarding `Nc1n[nH]c2nc(-c3ccccc3)cc(-c3ccccc3)c12` [EB1, 4,6-diphenyl-1H-pyrazolo[3,4-b]pyridin-3-amine], the “activity as MNK inhibitor (eIF4E phosphorylation)” value in test [1] is “active”. Further, the “levels of PD-L1” value in test [2] (MDA-MB-231, 48 h) is given as “reduces levels of PD-L1”. In addition, in test [2] (at comparable inhibition rates of eIF4E phosphorylation), the “potency on PD-L1 compared with eFT508 and CGP57380” value is recorded as “equally potent or superior”. In the test on 22Rv1 cells, the apoptotic cell population entry is given as “Remarcable increase in apoptotic cell population”. Besides, the “cells in the G1 phase of the cell cycle” value with MDA-MB-231 cells is “increase of cells could be observed in the G1 phase”. Moreover, the “activity as MNK inhibitor (eIF4E phosphorylation)” value in test [3] is on record as “active”. Further, the “mode of MNK1/2 inhibition” value in the test on MNK1/2 [4] is reported as “non-ATP competitive”. The IC50 at MNK1/2 [5] came to 700 nM. Besides, the EC50 in test [6] (Homo sapiens, MDA-MB-231 triple-negative breast cancer cells, read-out: in vitro EC50, inhibition of eIF4E phosphorylation) was around 1500 nM. Also, in test [6] (MDA-MB-231), the “concentration at which eIF4E phosphorylation is significantly reduced” value is on record as “greater than 2.5 μM”, the “concentration giving almost complete inhibition of eIF4E phosphorylation” value is at least 2.5 µM and the “duration of the effect on eIF4E phosphorylation” value was “at least 72 h”. Further, in test [6] (MDA-MB-231, 5 μM EB1 with doxorubicin), the “reversal of the increased eIF4E phosphorylation caused by doxorubicin” value is reported as “can be reversed”. Also, the “effect on components of the signalling pathway (p-MNK, ERK, 4E-BP1)” value in test [6] (MDA-MB-231, Western Blot) was “does not affect any of the components of the signalling pathway”.
